Like-named read-outs stand apart in the source and are kept apart here.

The IC50 is the concentration needed to halve the response being measured.

Experiment [1] addresses T1, ENPP-1 ECD (Homo sapiens (Human), UniProt P22413). In words: Assay 2: inhibition of ENPP1 hydrolysis of 2′,3′-cGAMP (AMP-Glo, […] enzyme).
Procedure: Assay 2: Compared to the conditions in Assay 1, this assay has a larger dynamic range and ensures the system is under steady-state conditions by reducing the enzyme concentration in the assay.
Test compounds were plated in a 3× dilution scheme in a 384 well plate. […] AMP Detection solution (10 μL) was added to each well, the plate centrifuged and incubated for 60 min.
Experiment [2] addresses ENPP1 on MDA-MB-231 cells (Homo sapiens (Human), UniProt P22413). The experiment is described as follows: Assay 3: inhibition of ENPP1 hydrolysis of AMP p-nitrophenyl ester on MDA-MB-231 cells.
Experiment [3] has as its target T1, ENPP-1 ECD. In words: Assay 1: inhibition of ENPP1 hydrolysis of 2′,3′-cGAMP (AMP-Glo, […] enzyme).
Procedure: Assay 1: Test compounds were plated in a 3× dilution scheme in a 384 well plate. […] AMP Detection solution (100 μL) was added to each well, the plate centrifuged and incubated for 60 min.
Setting [4] is: read-out: Assay 2 (KI), ENPP1 hydrolysis of 2′,3′-cGAMP, AMP-Glo, […] ENPP-1, 24 μM cGAMP.
Setting [5] is: read-out: Assay 2 (KI), inhibition of ENPP1 hydrolysis of 2′,3′-cGAMP, no unit in Table 18 (Table 17 legend for this assay uses nM).
Where [6] appears, read: read-out: Assay 3 (KI, app), apparent KI from IC50 via Cheng/Prusoff, pNP-AMP […], MDA-MB-231 cells, pH 7.4, 37° C., 3 h, unit inferred.
Setting [7] is: Assay 2 (KI), ENPP1 hydrolysis of 2′,3′-cGAMP, AMP-Glo, […] ENPP-1, 24 μM cGAMP.
[8] abbreviates: Assay 2 (KI), inhibition of ENPP1 hydrolysis of 2′,3′-cGAMP, no unit in Table 18 (Table 17 legend for this assay uses nM).
[9] abbreviates: Assay 1 (IC50), ENPP1 hydrolysis of 2′,3′-cGAMP, AMP-Glo.
The mark [10] stands for this setting: Assay 1 (IC50), inhibition of ENPP1 hydrolysis of 2′,3′-cGAMP, no unit in Table 18 (Table 17 legend for this assay uses nM).
Setting [11] is: read-out: Assay 1 (IC50), ENPP1 hydrolysis of 2′,3′-cGAMP, AMP-Glo.

T1 sequence (P22413 98-925): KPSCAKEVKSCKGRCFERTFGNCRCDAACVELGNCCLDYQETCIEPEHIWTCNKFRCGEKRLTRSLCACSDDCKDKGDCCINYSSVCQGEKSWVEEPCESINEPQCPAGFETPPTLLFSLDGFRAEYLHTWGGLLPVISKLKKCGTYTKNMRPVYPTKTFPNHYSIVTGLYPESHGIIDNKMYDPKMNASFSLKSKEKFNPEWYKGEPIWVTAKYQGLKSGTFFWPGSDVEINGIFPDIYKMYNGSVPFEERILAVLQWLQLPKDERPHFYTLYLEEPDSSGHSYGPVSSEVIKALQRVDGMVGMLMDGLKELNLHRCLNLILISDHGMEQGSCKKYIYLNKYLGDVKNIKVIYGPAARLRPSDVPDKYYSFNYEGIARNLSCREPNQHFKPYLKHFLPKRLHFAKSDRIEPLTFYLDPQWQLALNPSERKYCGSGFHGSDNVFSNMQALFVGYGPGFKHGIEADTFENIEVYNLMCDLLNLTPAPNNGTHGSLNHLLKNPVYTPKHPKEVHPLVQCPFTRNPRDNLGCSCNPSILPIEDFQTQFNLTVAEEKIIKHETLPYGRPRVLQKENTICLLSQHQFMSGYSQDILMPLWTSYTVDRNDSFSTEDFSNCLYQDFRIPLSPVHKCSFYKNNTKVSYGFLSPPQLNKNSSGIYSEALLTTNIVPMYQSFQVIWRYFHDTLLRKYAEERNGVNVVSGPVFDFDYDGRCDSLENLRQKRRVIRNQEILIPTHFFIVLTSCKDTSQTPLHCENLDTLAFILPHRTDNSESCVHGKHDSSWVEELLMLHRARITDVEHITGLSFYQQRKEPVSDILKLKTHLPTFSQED
Sequence of ENPP1 on MDA-MB-231 cells (P22413 whole entry, the tested form may be a part): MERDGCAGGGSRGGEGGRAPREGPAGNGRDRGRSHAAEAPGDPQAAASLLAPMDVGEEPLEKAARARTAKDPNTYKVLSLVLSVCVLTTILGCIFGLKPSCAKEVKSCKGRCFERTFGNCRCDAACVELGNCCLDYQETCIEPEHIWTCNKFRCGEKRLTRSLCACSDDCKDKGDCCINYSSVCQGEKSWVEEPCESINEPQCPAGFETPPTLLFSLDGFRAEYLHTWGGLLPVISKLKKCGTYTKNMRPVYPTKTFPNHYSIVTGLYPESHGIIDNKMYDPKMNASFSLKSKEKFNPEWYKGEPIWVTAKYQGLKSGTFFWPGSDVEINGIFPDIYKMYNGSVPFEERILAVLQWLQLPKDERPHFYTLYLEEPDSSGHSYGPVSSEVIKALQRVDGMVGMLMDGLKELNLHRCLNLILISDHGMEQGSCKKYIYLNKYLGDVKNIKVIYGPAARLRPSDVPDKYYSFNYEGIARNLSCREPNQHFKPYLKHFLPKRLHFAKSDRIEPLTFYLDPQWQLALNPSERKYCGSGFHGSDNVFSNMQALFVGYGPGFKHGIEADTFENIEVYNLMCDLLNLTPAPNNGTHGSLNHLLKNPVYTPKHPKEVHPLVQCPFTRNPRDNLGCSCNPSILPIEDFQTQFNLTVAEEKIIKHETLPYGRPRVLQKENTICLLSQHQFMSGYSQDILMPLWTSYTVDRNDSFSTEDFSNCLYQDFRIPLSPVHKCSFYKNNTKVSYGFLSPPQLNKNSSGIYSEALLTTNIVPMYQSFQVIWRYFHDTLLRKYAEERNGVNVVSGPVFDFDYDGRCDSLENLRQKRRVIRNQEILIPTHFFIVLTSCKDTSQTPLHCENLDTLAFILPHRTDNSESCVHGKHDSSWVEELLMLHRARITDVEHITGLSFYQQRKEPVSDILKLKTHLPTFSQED

In the case of `COc1cc2ncnc(-c3ccc4c(c3)CN([S@](C)(=N)=O)CC4)c2cc1OC` [Compound 37b], the Ki at ENPP-1 ECD [1] (setting [4]) is < 3 nM; at ENPP-1 ECD [1] (setting [5]) it was 0.28 nM; in experiment [2] (setting [6]), 21 nM.

On to `COc1cc2ncnc(N3CCC(CN[S@@](C)(=N)=O)CC3)c2cc1OC` [Compound 94a], for which the Ki is < 3 nM on ENPP-1 ECD [1] (setting [4]), 0.78 nM at ENPP-1 ECD [1] (setting [5]) and 46 nM in experiment [2] (setting [6]).

Regarding `COc1ccc2c(Oc3ccc(S(C)(=N)=O)cc3)c(C#N)cnc2c1` (stereo not shown) [Compound 121, 4-{4-[imino(methyl)oxo-λ^6-sulfanyl]phenoxy}-7-methoxyquinoline-3-carbonitrile], the Ki at ENPP-1 ECD [1] (setting [7]) is 3 to 300 nM; on ENPP-1 ECD [1] (setting [8]), 4.2 nM; in experiment [2], 250 nM.

As to `COc1ccc2c(Oc3ccc(S(=N)(=O)CC4CC4)cc3)ccnc2c1` (stereo not shown) [Compound 123, (cyclopropylmethyl)(imino){4-[(7-methoxyquinolin-4-yl)oxy]phenyl}-λ^6-sulfanone], the values for the Ki (at ENPP-1 ECD [1] (setting [7]); on ENPP-1 ECD [1] (setting [8]); in experiment [2]) were < 3 nM, 1.5 nM and 60 nM, respectively.

In the case of `COc1ccc2c(Oc3ccc(S(C)(=N)=O)cc3)cc(C)nc2c1` (stereo not shown) [Compound 124, imino({4-[(7-methoxy-2-methylquinolin-4-yl)oxy]phenyl})methyl-λ^6-sulfanone], the Ki was < 3 nM on ENPP-1 ECD [1] (setting [7]), 0.73 nM on ENPP-1 ECD [1] (setting [8]) and 30 nM in experiment [2].

Take `COc1ccc2c(Oc3ccc(S(=N)(=O)CC(C)(C)O)cc3)ccnc2c1` (stereo not shown) [Compound 132, (2-hydroxy-2-methylpropyl)(imino){4-[(7-methoxyquinolin-4-yl)oxy]phenyl}-λ^6-sulfanone]: the Ki at ENPP-1 ECD [1] (setting [7]) was < 3 nM; on ENPP-1 ECD [1] (setting [8]), 1.1 nM; in experiment [2] it was 45 nM.

As to `COc1ccc2c(OCc3ccc(S(C)(=N)=O)cc3Br)ccnc2c1` (stereo not shown) [Compound 137, (3-bromo-4-{[(7-methoxyquinolin-4-yl)oxy]methyl}phenyl)(imino)methyl-λ^6-sulfanone], the Ki on ENPP-1 ECD [1] (setting [7]) is 3 to 300 nM; at ENPP-1 ECD [1] (setting [8]), 38 nM. The concentration for half-maximal inhibition (IC50) against ENPP-1 ECD [3] (setting [9]) is 10 to 1000 nM; on ENPP-1 ECD [3] (setting [10]), 200 nM.

With `COc1ccc2c(N3CCC(CCS(C)(=N)=O)CC3)ncnc2c1` (stereo not shown) [Compound 139, imino({2-[1-(7-methoxyquinazolin-4-yl)piperidin-4-yl]ethyl})methyl-λ^6-sulfanone], the Ki is < 3 nM on ENPP-1 ECD [1] (setting [7]) and 2.4 nM at ENPP-1 ECD [1] (setting [8]). For the same compound, the 50% inhibitory concentration (IC50) on ENPP-1 ECD [3] (setting [9]) is 10 to 1000 nM; against ENPP-1 ECD [3] (setting [10]) it was 15 nM.

As for `COc1cccc2c(N3CCC(CCS(C)(=N)=O)CC3)ccnc12` (stereo not shown) [Compound 140, imino({2-[1-(8-methoxyquinolin-4-yl)piperidin-4-yl]ethyl})methyl-λ^6-sulfanone], the Ki was 3 to 300 nM at ENPP-1 ECD [1] (setting [7]) and 180 nM at ENPP-1 ECD [1] (setting [8]). For the same compound, the IC50 is 10 to 1000 nM against ENPP-1 ECD [3] (setting [9]) and 880 nM at ENPP-1 ECD [3] (setting [10]).

Take `COc1cc2nccc(N3CCC(CC[S@@](C)(=N)=O)CC3)c2cc1Cl` [Compound 141a]: the Ki is < 3 nM at ENPP-1 ECD [1] (setting [4]), 0.26 nM on ENPP-1 ECD [1] (setting [5]) and 28 nM in experiment [2] (setting [6]).

Turning to `COc1ccc2c(N3CCC(CCS(C)(=N)=O)CC3)c(C#N)cnc2c1` (stereo not shown) [Compound 143, 4-(4-{2-[imino(methyl)oxo-λ6-sulfanyl]ethyl}piperidin-1-yl)-7-methoxyquinoline-3-carbonitrile], the results for the Ki (at ENPP-1 ECD [1] (setting [7]); on ENPP-1 ECD [1] (setting [8]); in experiment [2]) were < 3 nM, 1 nM and 180 nM, respectively.

As for `COc1cc2ncc(C#N)c(N3CCC(CCS(C)(=N)=O)CC3)c2cc1OC` (stereo not shown) [Compound 144, 4-(4-{2-[imino(methyl)oxo-λ6-sulfanyl]ethyl}piperidin-1-yl)-6,7-dimethoxyquinoline-3-carbonitrile], the Ki is < 3 nM on ENPP-1 ECD [1] (setting [7]), 0.28 nM on ENPP-1 ECD [1] (setting [8]) and 19 nM in experiment [2].

Take `COc1cccc2c(N3CCC(CS(C)(=N)=O)CC3)ncnc12` (stereo not shown) [Compound 146, imino({[1-(8-methoxyquinazolin-4-yl)piperidin-4-yl]methyl})methyl-λ^6-sulfanone]: the results for the Ki (on ENPP-1 ECD [1] (setting [7]); at ENPP-1 ECD [1] (setting [8]); in experiment [2]) were < 3 nM, 0.36 nM and 15 nM, respectively.

With `COc1cccc2c(N3CCC(C[S@@](C)(=N)=O)CC3)ncnc12` [Compound 146a], the Ki at ENPP-1 ECD [1] (setting [5]) worked out at 0.12 nM; in experiment [2] (setting [6]) it was 4.5 nM.

As to `CS(=N)(=O)CCC1CCN(c2ccnc3ccccc23)CC1` (stereo not shown) [Compound 149, imino(methyl){2-[1-(quinolin-4-yl)piperidin-4-yl]ethyl}-λ^6-sulfanone], the Ki at ENPP-1 ECD [1] (setting [7]) is > 300 nM; on ENPP-1 ECD [1] (setting [8]), 410 nM. Further, the half-inhibitory concentration (IC50) was 1400 nM against ENPP-1 ECD [3] (setting [10]) and > 1000 nM on ENPP-1 ECD [3] (setting [11]).

Consider `COc1cc2ncnc(-c3ccc(CCS(C)(=N)=O)cc3)c2cc1OC` (stereo not shown) [Compound 153, {2-[4-(6,7-dimethoxyquinazolin-4-yl)phenyl]ethyl}(imino)methyl-λ^6-sulfanone], for which the values for the Ki at ENPP-1 ECD [1] (setting [7]) and at ENPP-1 ECD [1] (setting [8]) were 3 to 300 nM and 12 nM, respectively. Further, the half-maximal inhibitory concentration (IC50) against ENPP-1 ECD [3] (setting [9]) is 10 to 1000 nM; against ENPP-1 ECD [3] (setting [10]), 54 nM.

For `COc1cc2nccc(N3CCC4(CC3)CCN(S(C)(=N)=O)C4)c2cc1Cl` (stereo not shown) [Compound 156, [8-(6-chloro-7-methoxyquinolin-4-yl)-2,8-diazaspiro[4.5]decan-2-yl](imino)methyl-λ^6-sulfanone], the Ki at ENPP-1 ECD [1] (setting [7]) was < 3 nM; at ENPP-1 ECD [1] (setting [8]) it was 0.03 nM; in experiment [2], 4.1 nM.

As to `COc1cc2nccc(N3CCC4(CC3)CCN([S@@](C)(=N)=O)C4)c2cc1Cl` [Compound 156a], the figures for the Ki (at ENPP-1 ECD [1] (setting [4]); at ENPP-1 ECD [1] (setting [5]); in experiment [2] (setting [6])) were < 3 nM, 0.016 nM and 1.7 nM, respectively.

On to `CCS(=N)(=O)N1CCC2(CCN(c3ncnc4cc(OC)c(OC)cc34)CC2)C1` (stereo not shown) [Compound 159, [8-(6,7-dimethoxyquinazolin-4-yl)-2,8-diazaspiro[4.5]decan-2-yl](ethyl)imino-λ^6-sulfanone], for which the Ki on ENPP-1 ECD [1] (setting [7]) was < 3 nM; at ENPP-1 ECD [1] (setting [8]), 0.025 nM; in experiment [2] it was 3.6 nM.

`COc1cc2ncnc(N3CCC4(CC3)CCN(S(=N)(=O)C3CC3)C4)c2cc1OC` (stereo not shown) [Compound 160, {cyclopropyl[8-(6,7-dimethoxyquinazolin-4-yl)-2,8-diazaspiro[4.5]decan-2-yl]imino-λ^6-sulfanyl}one]: the Ki is < 3 nM on ENPP-1 ECD [1] (setting [7]), 0.021 nM on ENPP-1 ECD [1] (setting [8]) and 0.45 nM in experiment [2].

In the case of `COc1cc2ncnc(N3CCC4(CC3)CCN([S@](=N)(=O)C3CC3)C4)c2cc1OC` [Compound 160a], the Ki came out at 0.007 nM at ENPP-1 ECD [1] (setting [5]) and 0.22 nM in experiment [2] (setting [6]).

As to `COc1cc2nccc(-c3ccc4c(c3)CN([S@@](C)(=N)=O)CC4)c2cc1OC` [Compound 161a], the Ki at ENPP-1 ECD [1] (setting [4]) was < 3 nM; at ENPP-1 ECD [1] (setting [5]), 0.015 nM; in experiment [2] (setting [6]), 5.2 nM.

In the case of `COc1ccc2c(-c3ccc(CNS(C)(=N)=O)cc3)ccnc2c1` (stereo not shown) [Compound 162, N-{[4-(7-methoxyquinolin-4-yl)phenyl]methyl}methanesulfonoimidamide], the Ki on ENPP-1 ECD [1] (setting [7]) was 3 to 300 nM; on ENPP-1 ECD [1] (setting [8]), 6.9 nM. The figures for the IC50 on ENPP-1 ECD [3] (setting [9]) and against ENPP-1 ECD [3] (setting [10]) were 10 to 1000 nM and 40 nM, respectively.

On to `COc1ccc2c(N3CCC(CCS(C)(=N)=O)CC3)ncnc2c1OC` (stereo not shown) [Compound 165, (2-(1-(7,8-dimethoxyquinazolin-4-yl)piperidin-4-yl)ethyl)(imino)(methyl)-l6-sulfanone], for which the Ki on ENPP-1 ECD [1] (setting [7]) was > 300 nM; at ENPP-1 ECD [1] (setting [8]), 1400 nM. For the same compound, the IC50 on ENPP-1 ECD [3] (setting [10]) was > 30000 nM; on ENPP-1 ECD [3] (setting [11]), > 1000 nM.

For `COc1ccc2c(Oc3ccc(S(=N)(=O)C4CN(C(C)=O)C4)cc3)ccnc2c1` (stereo not shown) [Compound 166, 1-[3-({4-[(7-methoxyquinolin-4-yl)oxy]phenyl}imino-λ^6-sulfanyl)azetidin-1-yl]ethan-1-one], the Ki came out at 3.1 nM at ENPP-1 ECD [1] (setting [8]) and 230 nM in experiment [2].

`COc1ccc2c(Oc3ccc(S(C)(=N)=O)cc3)c(C)cnc2c1` (stereo not shown) [Compound 168, imino({4-[(7-methoxy-3-methylquinolin-4-yl)oxy]phenyl})methyl-λ^6-sulfanone]: the Ki on ENPP-1 ECD [1] (setting [8]) is 0.84 nM; in experiment [2], 40 nM.

Consider `COc1cc2nccc(OCc3cccc(S(C)(=N)=O)c3)c2cc1F` (stereo not shown) [Compound 169, (3-{[(6-fluoro-7-methoxyquinolin-4-yl)oxy]methyl}phenyl)(imino)methyl-λ^6-sulfanone], for which the Ki worked out at 0.051 nM on ENPP-1 ECD [1] (setting [8]) and 1.5 nM in experiment [2].

Consider `COc1cc2nccc(OCc3cccc([S@@](C)(=N)=O)c3)c2cc1F` [Compound 169a], for which the Ki on ENPP-1 ECD [1] (setting [5]) was 15 nM; in experiment [2] (setting [6]), > 190 nM.

On to `COc1cc2nccc(OCc3cccc([S@](C)(=N)=O)c3)c2cc1F` [Compound 169b], for which the Ki was determined as 0.018 nM on ENPP-1 ECD [1] (setting [5]) and 1.5 nM in experiment [2] (setting [6]).

With `COc1ccc2c(OCc3cc(S(C)(=N)=O)co3)ccnc2c1` (stereo not shown) [Compound 170, imino(5-{[(7-methoxyquinolin-4-yl)oxy]methyl}furan-3-yl)methyl-λ^6-sulfanone], the Ki at ENPP-1 ECD [1] (setting [8]) amounted to 0.7 nM; in experiment [2], 25 nM.

`COc1cc2ncnc(OCc3cccc(S(C)(=N)=O)c3)c2cc1OC` (stereo not shown) [Compound 173, (3-{[(6,7-dimethoxyquinazolin-4-yl)oxy]methyl}phenyl)(imino)methyl-λ^6-sulfanone]: the results for the Ki (at ENPP-1 ECD [1] (setting [8]); in experiment [2]) were 0.17 nM and 9.2 nM, respectively.

These data come from patent US11780849B2, “Imino sulfanone inhibitors of ENPP1” (Volastra Therapeutics, Inc., priority 2020, dated 2023).
